Data taken from patent publication US7479540B1, “Adipomodulin and related molecules and methods” (priority 2003, dated 2009).
Several values for one entry are separate records, joined by “and”; a condition that tells them apart may be missing. Equal values may be shown once.

Key:
HSL+/+ adipocytes = assay: Lipolysis (glycerol release) in HSL+/+ adipocytes from wild type mice; assay type: cell-based, mouse; conditions: for Lipolysis (nmol glycerol produced): HSL +/+, 2 hours; for stimulation of lipolysis, result in words: HSL+/+ adipocytes compared with HSL−/−
Description: (§1) To determine whether adipomodulin acts through the classical HSL pathway, Sample 121 was tested in HSL+/+ and HSL−/− adipocytes derived from wild type and HSL knockout mice (obtained from Dr. Grant Mitchell, Sainte Justine Hospital, Montreal, Quebec, Canada), respectively. […] Lipolysis was measured as glycerol release from an adipocyte suspension. In each experiment, adipocytes were pooled from perigonadal fat of two to four 6-month-old mice of the same gender and genotype. One hundred microliters of adipocyte suspension were incubated for 2 hours in a final volume of […] of Krebs-Ringer-HEPES (30 mM) buffer (pH 7.4) supplemented with 2.5% BSA, 2.5% N6-[R-(−)-1-methyl-2-phenyl] adenosine ([…]), and 1 U/mL adenosine deaminase. In some tubes, the lipolytic beta3-adrenergic agonist CL316,243 ([…]) (Wyeth-Ayerst Research Laboratories, Princeton, N.J.) or cAMP agonist (dibutryl cAMP) were added. After a 2-hour incubation, the reaction was stopped by freezing on dry ice. The mixture was extracted with chloroform to remove triglycerides, and glycerol content was then determined by glycerol assay kit (Roche Diagnostics).

HSL−/− adipocytes = assay: Lipolysis (glycerol release) in HSL-/- adipocytes from HSL knockout mice; assay type: cell-based, mouse; conditions: 2 hours
Description: as §1

[1] = molecular target: receptor for adipomodulin on NIH 3T3-L1 adipocytes (mouse); assay: 125I-ligand binding to 3T3-L1 adipocytes at 4 C, 2 h, competitor: excess unlabeled λ- + k-light chain mix
NIH 3T3-L1 adipocytes = assay: Lipolysis (glycerol) in differentiated NIH 3T3-L1 adipocytes (Example 8); assay type: cell-based, mouse; conditions: 0.1 mM, 4 hours, 37° C.
Description: (§2) Stimulation of lipolysis in differentiated 3T3-L1 cells was measured according to the procedure described in Hirsch, A. H. & Rosen, O. M., “Lipolytic stimulation modulates the subcellular distribution of hormone-sensitive lipase in 3T3-L1 cells,” J. Lipid Res., vol. 25, pp. 665-667 (1984), which is incorporated herein in its entirety. The 3T3-L1 preadipocyte cell line (from ATCC) was differentiated by treating confluent monolayers with dexamethasone 0.5 μM, 0.15 μM insulin, and methylisobutylxanthine (IBMX) 0.5 mM. After 48 hours, the cells were fed with fresh medium containing 0.15 μM insulin and maintained in culture for 24 hours. Next, the cells were maintained in insulin-free DMEM containing 10% fetal bovine serum for 4-5 days. On the day of experimentation, the differentiated cells were incubated in serum-free DMEM containing 0.2% fatty acid free BSA and 5 mM glucose and treated with adipomodulin, adipomodulin elution buffer, or IBMX at 37° C. for 4 hours. […] The levels of cAMP in the cytosol and the supernatant were measured by competitive radioimmunoassay. […] After several washing steps, the complexes of radioactive cAMP-antibody are counted in a gamma counter. […]

cAMP = cAMP radioimmunoassay in differentiated NIH 3T3-L1 adipocytes; assay type: cell-based, mouse
Description: as §2

Molecule | Lipolysis (nmol glycerol produced) (HSL+/+ adipocytes; 10 uM) | Lipolysis (nmol glycerol produced) (HSL−/− adipocytes; 10 uM) | stimulation of lipolysis, result in words (HSL+/+ adipocytes) | other results
C[C@H](Cc1ccc2c(c1)OC(C(=O)[O-])(C(=O)[O-])O2)NC[C@H](O)c1cccc(Cl)c1.[Na+].[Na+] [CL316, 243] | 6.2 ± 1.1 nmol glycerol produced | 1.1 ± 0.3 nmol glycerol produced | – | –
adipomodulin (Sample 122) | – | – | – | Binding, CPM/well [1]: 3230 CPM/well and 3840 CPM/well
CC(C)Cn1c(=O)n(C)c(=O)c2[nH]cnc21 [IBMX, methylisobutylxanthine] | – | – | – | Lipolysis (NIH 3T3-L1 adipocytes): 3400 ± 50 pmol glycerol/well; cAMP (cAMP; 0.1 mM, 4 hours, 37° C.): 69 ± 4 fmol/well; effect on cAMP, result in words (cAMP; versus medium control and elution buffer controls): significant stimulation of cAMP
CCCC(=O)Nc1ncnc2c1ncn2[C@@H]1O[C@@H]2COP(=O)(O)O[C@H]2[C@H]1OC(=O)CCC [Dibutryl cAMP, dibutryl cAMP] | – | – | stimulated lipolysis most dramatically in HSL+/+ adipocytes | Lipolysis (nmol glycerol produced) (HSL+/+ adipocytes; 1 mM): 7.6 ± 1.0 nmol glycerol produced; Lipolysis (nmol glycerol produced) (HSL−/− adipocytes; 1 mM): 1.1 ± 0.1 nmol glycerol produced
CC(C)NCC(O)c1ccc(O)c(O)c1 (stereo not drawn) [Isoproterenol, isoproterenol] | 5.8 ± 1.0 nmol glycerol produced | 0.9 ± 0.2 nmol glycerol produced | stimulated lipolysis most dramatically in HSL+/+ adipocytes | –
